Reference: US10434181B2, “Oligomer-containing benzamide-based compounds” (Nektar Therapeutics, priority 2012, dated 2019)

Tests used:
[1] = tested on: Sprague-Dawley rat hepatocytes; assay: MetID determination in rat hepatocytes; assay type: in vitro ADME
Protocol: (§1) Cryopreserved human and Sprague-Dawley rat hepatocytes were thawed in a 37° C. water bath. […] Samples were obtained from separate plates for each time point during the incubation. At each sampling time, the plates were removed from the incubator, quenched by adding 100 μL cold acetonitrile, and placed in an ice bath until centrifugation at 4,000 rpm for 30 minutes at 4° C. Supernatants were stored at or below −70° C. until LC-MS/MS analysis could be conducted. The liquid chromatography system used was Agilent 1100 Autosampler, Binary Pump, DAD and Column Enclosure. Tandem mass spectrometry was conducted using a Thermo DECA XP MAX Ion Trap Mass Spectrometer. The ion source was Electrospray (+) and the LC column used was a Varian, Polaris 5 C18-A (250×2.1 mm, 5 micron) column.
(§2) Metabolic pathways of metoclopramide and conjugates were determined in rat and human hepatocytes. N-dealkylation was the major metabolic pathway for metoclopramide in rats, and metabolism in human hepatocytes was minimal. […] FIG. 2 and FIG. 3 show the metabolic pathway of for mPEG1-N-metoclopramide and mPEG4-N-metoclopramide, respectively. […] In this figure, different metabolites for each conjugate are denoted with the “M” and correspond to the designation provided in the figure for a given conjugate. For example, metabolite M1 for mPEG1-N-metoclopramide in Table 6 corresponds to M1 in FIG. 2, metabolite M2 for mPEG4-N-metoclopramide in Table 6 corresponds to M2 in FIG. 3 and metabolite M3 mPEG8-N-metoclopramide in Table 6 corresponds to M3 in FIG. 4.

human hepatocytes = assay: MetID determination in human hepatocytes; assay type: in vitro ADME
Protocol: as §1, §2

[2] = incubation of 10 μM mPEG4-N-metoclopramide, parent and its metabolites M (FIG. 3)
[3] = incubation of 10 μM mPEG8-N-metoclopramide, parent and its metabolites M (FIG. 4)

SMILES | % of Total Metabolism, Rat Hep 1 hr [1, 2] | % of Total Metabolism, Rat Hep 4 hr [1, 2] | % of Total Metabolism, Rat Hep 1 hr [1, 3] | % of Total Metabolism, Rat Hep 4 hr [1, 3] | % of Total Metabolism, Human Hep 1 hr (human hepatocytes; [3]) | % of Total Metabolism, Human Hep 4 hr (human hepatocytes; [3]) | % of Total Metabolism, Human Hep 4 hr (human hepatocytes; [2])
CCN(CCO)CCNC(=O)c1cc(Cl)c(N)cc1OC [M6] | trace | trace | 1% | 2.2% | – | – | –
CCN(CCNC(=O)c1cc(Cl)c(N)cc1OC)CCOCCOCCOCCO [M9] | 8.8% | 24.8% | Trace | 1.6% | trace | trace | 1.9%
CCN(CCNC(=O)c1cc(Cl)c(N)cc1OC)CCOCCOCCOCCO [M13] | – | – | 3.0% | 12.6% | – | 2.7% | –
CCN(CCNC(=O)c1cc(Cl)c(N)cc1OC)CCOCCOCCOCCOCCO [M14] | – | – | Trace | 2% | trace | trace | –

Second part, the compound after the results:

% of Total Metabolism, Rat Hep 1 hr [1, 2] | % of Total Metabolism, Rat Hep 4 hr [1, 2] | % of Total Metabolism, Rat Hep 1 hr [1, 3] | % of Total Metabolism, Rat Hep 4 hr [1, 3] | % of Total Metabolism, Human Hep 1 hr (human hepatocytes; [3]) | % of Total Metabolism, Human Hep 4 hr (human hepatocytes; [3]) | % of Total Metabolism, Human Hep 4 hr (human hepatocytes; [2]) | SMILES
1.7% | 1.2% | 1.2% | 2.2% | trace | trace | – | CCN(CCNC(=O)c1cc(Cl)c(N)cc1OC)CCOCCO [M7]
trace | 1.5% | 1.3% | 2.5% | trace | trace | – | CCN(CCNC(=O)c1cc(Cl)c(N)cc1OC)CCOCCOCCO [M8]
– | – | – | trace | – | – | – | CCN(CCO)CCNC(=O)c1cc(Cl)c(N)cc1OC [M10]
– | – | Trace | 3.5% | – | – | – | CCN(CCNC(=O)c1cc(Cl)c(N)cc1OC)CCOCCO [M11]
– | – | Trace | 0.7% | – | trace | – | CCN(CCNC(=O)c1cc(Cl)c(N)cc1OC)CCOCCOCCO [M12]
